Experimental data from PMC1764757 (BMC Cancer, 2006).

Key:
[1] = ancillary pharmacokinetic study, plasma, HPLC-MS/MS; details: for Tmax: human, iv
Description: (§1) Blood samples were taken following drug administration and the plasma extracted immediately and stored. Blood samples for determination of Cilengitide were collected at the following time points: day 1 immediately before Cilengitide infusion and after 1 h (end of infusion); day 8 immediately before Cilengitide infusion and after 1 h (end of infusion) and 0.5 h, 1 h, 2 h, 3 h, 4 h, 7 h, and 11 h after end of Cilengitide infusion. Blood samples for gemcitabine analysis were collected in both treatment arms on day 1 and day 8 at the following time points: 0 h (immediately before start of infusion of gemcitabine), 0.5 h (at the end of infusion of gemcitabine) and 0.5 h, 1.5 h, 2.5 h, and 3.5 h after end of gemcitabine infusion.
(§2) Analysis was carried out at a single laboratory using high-performance liquid chromatography-tandem mass spectrometry. Calculation of pharmacokinetic parameters was performed according to non-compartmental standard methods. Pharmacokinetic analyses included maximum plasma concentration (Cmax), time to maximum concentration (tmax), area under the curve from time zero to the last sampling time (AUC0-t), area under the curve from time zero to infinity (AUC0-∝), apparent elimination rate constant (λz), apparent terminal elimination half-life associated with the negative terminal slope (t1/2), total body clearance of drug from plasma (CL) and the volume of distribution at steady state (Vss). The lower limits of quantification for Cilengitide and gemcitabine in plasma were 1 ng/mL and 50 ng/mL, respectively. For the plasma quality control samples of Cilengitide the interbatch coefficient of variation (CV) was 3.4% to 9.2% and the interbatch accuracy was 97% to 104%. For the plasma quality control samples of gemcitabine, the interbatch CV was 5.6% to 9.4% and the interbatch accuracy was 93.5% to 104%.

[2] = human, in vivo, iv, 600 mg/m^2, 1 h
Description: as §1, §2

[3] = system: patients with advanced solid tumors; details: in vivo; cited from earlier work
[4] = clinical; details: human, in vivo, iv
Description: as §1, §2

[5] = system: patients with advanced pancreatic cancer; details: cited from earlier work
[6] = system: patients with advanced unresectable pancreatic cancer; test: randomized phase II trial: survival, PFS and tumor response; format: in vivo, human
Source text: Patients with advanced unresectable pancreatic cancer were enrolled. Eligibility criteria included age ≥ 18 years, diagnosed (histologically or cytologically) with or without metastases, at least one bidimensionally measurable lesion, a Karnofsky performance score of ≥ 70%, a life expectancy of at least 12 weeks, and written informed consent. The main exclusion criteria were prior chemotherapy and/or major surgery related to pancreatic cancer before study entry with the exception of palliative surgery, brain metastases, a pancreatic tumor of neuroendocrine origin, second primary malignancies, inadequate liver and renal functions, inadequate bone marrow reserve, a history of cerebrovascular accident or repeated transient ischemic attacks and cardiac or cardiovascular abnormality.
This was a multi-national, open-label, controlled, randomized, parallel-group, phase II pilot study, conducted in 20 centers in 7 countries (Austria, Belgium, France, Germany, Spain, Switzerland, and the United Kingdom). Eligible patients were randomized to receive either Cilengitide and gemcitabine or gemcitabine alone. The Pocock minimization method [23] was applied for randomization using factors for center and for locally advanced or metastatic disease following the definition according to the tumor-node-metastasis (TNM) classification and histopathological grading system of the International Union Against Cancer. Cilengitide (600 mg/m^2) was administered twice weekly as a 1 hour intravenous (IV) infusion for 4 consecutive weeks (1 cycle). Gemcitabine (1000 mg/m^2) was administered as a weekly 30-minute IV infusion once weekly for 3 weeks followed by 1 week of rest (1 cycle). In the drug combination group, on the days on which both drugs were given, Cilengitide was given immediately prior to gemcitabine. The planned treatment period was 24 weeks (6 cycles), but patients responding to either regimen could continue treatment up to a maximum of 48 weeks.
Overall survival was defined as the time from the start of study drug administration to death. PFS was defined as the time interval between the date of randomization and the date of disease progression or death whichever came first. If neither was observed the patient was censored at the date of the last follow-up examination. A computed tomography or magnetic resonance imaging scan of target lesions was performed at baseline, weeks 9 and 17, and at the end of treatment to assess tumor size and treatment response. Unscheduled scans were conducted to confirm disease progression. Tumor response was assessed according to the amended World Health Organization (WHO) criteria for response based on the size of target lesions.
The sample size of the trial was determined by clinical feasibility. No inferential statistical comparison of the two treatment arms was planned. The aim was to obtain information on safety and feasibility as well as trends in efficacy by determination of overall survival as primary and progression-free survival (PFS), response rate, quality of life (QoL), effects on biological markers of disease (CA 19.9) and angiogenesis (vascular endothelial growth factor and basic fibroblast growth factor) and safety as secondary endpoints. Confidence intervals were presented at the 95%-confidence level. The data of this phase II pilot- and feasibility study, are presented in a descriptive manner. The primary analysis of survival (time to death from any cause) was conducted using the intention-to-treat (ITT) population. An additional supportive analysis using the Per Protocol (PP) population was conducted. The secondary objectives were to determine PFS, response rates, safety and tolerability, QoL, biological response, and pharmacokinetics.

[7] = system: patients with advanced unresectable pancreatic cancer; test: randomized phase II trial: safety, adverse events (NCI-CTC); format: in vivo, human
Source text: This was a multi-national, open-label, controlled, randomized, parallel-group, phase II pilot study, conducted in 20 centers in 7 countries (Austria, Belgium, France, Germany, Spain, Switzerland, and the United Kingdom). Eligible patients were randomized to receive either Cilengitide and gemcitabine or gemcitabine alone. The Pocock minimization method was applied for randomization using factors for center and for locally advanced or metastatic disease following the definition according to the tumor-node-metastasis (TNM) classification and histopathological grading system of the International Union Against Cancer. Cilengitide (600 mg/m^2) was administered twice weekly as a 1 hour intravenous (IV) infusion for 4 consecutive weeks (1 cycle). Gemcitabine (1000 mg/m^2) was administered as a weekly 30-minute IV infusion once weekly for 3 weeks followed by 1 week of rest (1 cycle). In the drug combination group, on the days on which both drugs were given, Cilengitide was given immediately prior to gemcitabine. The planned treatment period was 24 weeks (6 cycles), but patients responding to either regimen could continue treatment up to a maximum of 48 weeks. […] Any change was based on patient hematological and/or non-hematological parameters on the intended day of treatment as well as the maximum drug-induced toxicity grade observed between dosing. The before treatment and 4-weekly evaluations included a physical examination and laboratory investigations (blood counts, biochemical profile, urinalysis). Assessments were also made of Karnofsky performance status and vital signs. Before the start of the study, at the end of the study and when clinically indicated during the study chest X-rays and 12-lead electrocardiograms were performed. Adverse events were monitored and evaluated for frequency, duration, severity (mild, moderate, severe, life-threatening) and possible relationship to study medication. Toxicity was assessed according to NCI-CTC Version 2. All adverse events whether reported by a patient or observed by an investigator or study nurse were documented, regardless of whether they were considered to be drug-related, together with any medical intervention.

[8] = system: patients with advanced unresectable pancreatic cancer; test: randomized phase II trial: quality of life (EORTC QLQ-C30); format: in vivo, human; details: QLQ-C30, change from baseline
Description: Quality of life (QoL) was assessed using the European Organization for Research and Treatment of Cancer (EORTC) QoL core questionnaire (QLQ-C30, Version 3.0) in conjunction with the EORTC Pancreatic Module ([…] is a self-administered 30-item questionnaire and incorporates 5 functional scales, 3 symptom scales and a global health/QoL scale. EORTC-PAN26 is a 26-item questionnaire addressing pancreas cancer specific symptoms and the side effects from conventional therapy. Assessments were made at weeks 1, 9, 17, 25 and at the end of treatment. QoL data were analyzed descriptively due to the small number of patients enrolled in the study.

[9] = Cilengitide 600 mg/m^2 1 h IV infusion with gemcitabine, plasma, n 10
[10] = WHO criteria, ITT, listed as gemcitabine alone
[11] = all adverse events during the treatment period
[12] = onset during the treatment phase
[13] = possibly related to treatment, listed as gemcitabine alone
[14] = in combination with gemcitabine

CC(C)[C@H]1C(=O)N[C@@H](CCCN=C(N)N)C(=O)NCC(=O)N[C@@H](CC(=O)O)C(=O)N[C@H](Cc2ccccc2)C(=O)N1C [Cilengitide, Cyclo-l-Arg-l-Asp-d-Phe-N (Me) l-Val]
CL, Geomean [1, 9]: 54.2 mL/min/m^2
Vss, Geomean [1, 9]: 12100 mL/m^2
Tmax ([1]; plasma): 1 h
mean concentration at the end of infusion [2]: 62.182 ± 12.345 µg/mL
dose limiting toxicity [3]: no dose limiting toxicity was recorded
level at 1 h ([4]; 600 mg/m^2, mean concentration at the end of infusion): 75.4 ± 31.5 µg/mL
half-life ([4]; t1/2, Geomean): ~3 h

Nc1ccn([C@@H]2O[C@H](CO)[C@@H](O)C2(F)F)c(=O)n1 [Gemcitabine, gemcitabine]
median survival time ([5]; gemcitabine alone): 5.7 months
median maximum plasma concentration ([1]; gemcitabine alone group, Week 1, n = 5): 10600 ng/mL
median maximum plasma concentration ([1]; gemcitabine alone group, Week 2, n = 5): 6060 ng/mL
median maximum plasma concentration ([1]; gemcitabine in the Cilengitide and gemcitabine group, Week 1, n = 12): 6960 ng/mL
median maximum plasma concentration ([1]; gemcitabine in the Cilengitide and gemcitabine group, Week 2, n = 11): 7490 ng/mL
Tmax ([1]; plasma, 1000 mg/m^2): 0.5 h
1-year survival (95% CI) ([6]; ITT population): 0.24 (0.11–0.37)
Median PFS (95% CI) ([6]; ITT population): 115 (62–178) days
Median survival (95% CI) ([6]; ITT population): 234 (137–290) days
Number of deaths ([6]; ITT population): 37
median PFS time ([6]; ITT population): 3.8 months
median overall survival ([6]; ITT population): 7.7 months
Complete response, % of patients ([6]; WHO criteria, ITT): 2%
Complete response, No. patients ([6]; WHO criteria, ITT): 1
Partial response, % of patients ([6]; WHO criteria, ITT): 12%
Partial response, No. patients ([6]; WHO criteria, ITT): 5
Progressive disease, % of patients ([6]; WHO criteria, ITT): 23%
Progressive disease, No. patients ([6]; WHO criteria, ITT): 10
Response rate, % of patients ([6]; WHO criteria, ITT): 14%
Response rate, No. patients ([6]; WHO criteria, ITT): 6
Stable disease, % of patients ([6]; WHO criteria, ITT): 42%
Stable disease, No. patients ([6]; WHO criteria, ITT): 18
Tumor growth control rate, % of patients ([6]; WHO criteria, ITT): 56%
Tumor growth control, No. patients ([6]; WHO criteria, ITT): 24
Response rate, % of patients [6, 10]: 14%
Tumor growth control rate, % of patients [6, 10]: 56%
Condition reduced, number of events ([7]; SAE, Grade 3, relationship not assessable, considered possibly related): 1
Gamma-glutamyl transferase elevations (% of patients) [7, 11]: 29%
Nausea (% of patients) [7, 11]: 50%
Shivering (% of patients) [7, 11]: 7%
ascites (% of patients) [7, 11]: 26%
cholestasis (% of patients) [7, 11]: 26%
dyspepsia (% of patients) [7, 11]: 29%
dyspnea (% of patients) [7, 11]: 14%
fever (% of patients) [7, 11]: 24%
jaundice (% of patients) [7, 11]: 19%
urinary tract infection (% of patients) [7, 11]: 21%
number of possibly related serious adverse events ([7]; in vivo): 8
patients with possibly related adverse events, % ([7]; in vivo): 76%
patients with possibly related adverse events, number ([7]; in vivo): 32
total number of possibly related adverse events ([7]; in vivo): 278
AE, Grade 1/2, No. of events [7, 12]: 617
AE, Grade 1/2, Pts (%) [7, 12]: 17%
AE, Grade 3/4, No. of events [7, 12]: 138
AE, Grade 3/4, Pts (%) [7, 12]: 83%
AE, all grades, No. of events [7, 12]: 755
AE, all grades, Pts (%) [7, 12]: 100%
SAE, all, No. of events [7, 12]: 64
SAE, all, Pts (%) [7, 12]: 71%
SAE, all, Pts (%) ([7]; onset during the treatment phase, listed as gemcitabine alone): 71%
Epistaxis, number of events ([7]; possibly related SAE, Grade 2): 1
Exanthema, number of events ([7]; possibly related SAE, Grade 2): 1
Pneumonia, number of events ([7]; possibly related SAE, Grade 2): 1
Anorexia, number of events ([7]; possibly related SAE, Grade 3): 1
Depression, number of events ([7]; possibly related SAE, Grade 3): 1
Dyspnea, number of events ([7]; possibly related SAE, Grade 3): 2
Anemia (% of patients) ([7]; possibly related to treatment): 26%
Anorexia (% of patients) ([7]; possibly related to treatment): 14%
Asthenia (% of patients) ([7]; possibly related to treatment): 10%
Edema (% of patients) ([7]; possibly related to treatment): 5%
Fatigue (% of patients) ([7]; possibly related to treatment): 19%
Hair changes (% of patients) ([7]; possibly related to treatment): 12%
Headache (% of patients) ([7]; possibly related to treatment): 0%
Leukopenia (% of patients) ([7]; possibly related to treatment): 26%
Nausea (% of patients) ([7]; possibly related to treatment): 38%
Peripheral edema (% of patients) ([7]; possibly related to treatment): 5%
Shivering (% of patients) ([7]; possibly related to treatment): 2%
Sweating increased (% of patients) ([7]; possibly related to treatment): 2%
Thrombocytopenia (% of patients) ([7]; possibly related to treatment): 33%
Vomiting (% of patients) ([7]; possibly related to treatment): 26%
dyspepsia (% of patients) ([7]; possibly related to treatment): 7%
fever (% of patients) ([7]; possibly related to treatment): 10%
Leukopenia (% of patients) [7, 13]: 26%
Shivering (% of patients) [7, 13]: 2%
patients reporting an improved global health status ([8]; week 9): 50%
patients reporting an improved global health status ([8]; week 17): 47%

bevacizumab: anti-VEGF-agent, given in combination with gemcitabine
median overall survival time [5, 14]: 8,8 months
response rate [5, 14]: 21%
